Columns and labels:
[1] = system: Hepa1-6 cells; assay: Hepa1-6 cell proliferation; format: cell-based; conditions: with or without regorafenib (5 μM)
Text: FIG. 37 show anti-proliferative effect of illustrative compounds of the invention in Hepa1-6 cells.

[2] = system: bone marrow derived macrophages (BMDMs); assay: LPS-induced glycolysis in bone marrow derived macrophages (Seahorse); format: cell-based; conditions: BMDMs serum-starved 2 hours, LPS (10 ng/mL)+I-1 for 4 hours; Seahorse bioanalyzer
Method: Differentiated bone marrow derived macrophages were serum-starved for 2 hours then treated with vehicle (Control), LPS (10 ng/mL) or LPS+ACLYi (I-1) for 4 hours. Glycolytic rate was assessed using Seahorse bioanalyzer.

[3] = system: bone marrow derived macrophages (BMDMs); assay: LPS-induced glycolysis and inflammation in bone marrow derived macrophages; format: cell-based, mouse; conditions: 50 μM compound, 4 hours
Method: Macrophage were isolated as follows: femurs and tibia were collected from mice, cleaned of any soft tissues and the ends were cut off from each bone. The tibia and femur were then transferred into 1.5 mL Eppendorf tubes and the marrow was extracted via centrifugation (1900 g×5 min), resuspended in DMEM and strained through a 40 μm strainer into a 50 ml falcon tube. The strainer was rinsed with an additional 40 mL of DMEM, the cell suspension was transferred to a T175 flask, an additional 60 mL of DMEM was added and the cells were cultured at 37° C. for 4 hours. Differentiation was initiated by adding 20 mL of L929 fibroblast conditioned media and 12 mL was plated on 100 mm dishes. The cells were then left for 7 days to differentiate into macrophages. The media was then aspirated, cells were scraped in 3 mL of DMEM, then pooled and diluted at a ratio of 1:2 with DMEM. The cell suspension was plated in 12-well plates and cells were allowed to adhere overnight. […] Changes in gene expression were calculated using 2-delta cT method. Macrophage glycolytic rates were assessed using a Seahorse Bioanalyzer (XFe96, Agilent Scientific Instruments). […] The following day cells were serum-starved for 2 hours then treated with LPS (100 ng/mL) and Compound I-1 (50 μM) and glycolytic rate was analyzed (Agilent Seahorse XFp Cell Energy Phenotype Test Kit, Cat #103275-100).

[4] = system: tumor cancer pathway gene panel; assay: Nanostring nCounter Cancer panel gene expression in tumor of DEN-injected mice; format: in vivo, mouse; conditions: 100 mg/kg, 4 weeks
Method: Nanostring Analysis. RNA was extracted from paired liver and tumor tissue from vehicle, Compound I-1 (100 mg/kg) and Compound I-32 (100 mg/kg) treated mice using an RNeasy kit (Qiagen, Calif., USA) as per manufacturer's protocol. All RNA samples passed the BioAnalyzer quality control test. The expression of target genes in liver and tumor were analyzed using the nCounter Fibrosis and Cancer Panel (NanoString Technologies, Inc., WA, USA), respectively according to manufacturer's protocol at the McMaster Genomics Facility. Technical and biological normalization against global geometric mean was performed in nSolver 4.0 software (NanoString Technologies). Technical normalization was performed in the nSolver software (version 4.0.70) by normalizing sample target raw counts to the geometric mean of positive control spike-ins. […] Pathway scores were calculated as the first principal component of the normalized expression values for all genes in each pathway and samples were compiled according to experimental groups to determine average pathway scores. Statistical significance was calculated between experimental groups using multiple t-tests and p-values were corrected for multiple comparisons using Benjamin-Hochberg false discovery rate. […]

[5] = system: Il-6 mRNA; assay: Il-6 mRNA by RT-qPCR; format: cell-based
[6] = system: Il-1b mRNA; assay: Il-1b mRNA by RT-qPCR; format: cell-based

`CC(C)(CCCCc1cccc(CCCCC(C)(C)C(=O)O)c1)C(=O)O` [Compound I-32, 6-[3-(5-carboxy-5-methylhexyl)-phenyl]-2,2-dimethylhexanoic acid] was tested, and the effect on proliferation [1] was “anti-proliferation effect”.
In the case of `CC(C)(CCCCc1ccc(CCCCC(C)(C)C(=O)O)cc1)C(=O)O` [Compound I-1, 6-[4-(5-carboxy-5-methylhexyl)-phenyl]-2,2-dimethylhexanoic acid], the “LPS-induced glycolysis (glycolytic rate)” value [2] is reported as “suppression”, the “LPS-induced glycolysis (Seahorse) and inflammation (Il-6, Il-1b mRNA)” value [3] is reported as “suppression of LPS-induced glycolysis and inflammation” and the effect on proliferation [1] is reported as “anti-proliferation effect”. The “effects on tumor gene expression pathways related to cancer progression and survival” value [4] was “exerted pronounced effects on gene expression pathways related to cancer progression and survival”, the “marker of inflammation, Il-6 mRNA” value [5] was “suppression” and the “marker of inflammation, Il-1b mRNA” value [6] was “suppression”.
